The record followed here is PubChem BioAssay (NCI).

SMILES strings stand for the structures.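 Assay format: 96-well plates, 48-hour exposure. TGI is the concentration that stops growth completely.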 Bounds are passed on as bounds.

The subject of one test is HT29 colon. The test can be described thus: NCI anticancer screen, dose series, 48 h.
Compound `CC1C[C@]2(C)C(=O)Nc3ccccc3[C@@H]2Nc2ccccc21` (some centres not stated) gave a TGI of 30 µM.
Regarding `CCCCCC(/C=C/C1CCC(=O)C1CC#C[Si](C)(C)C)OCc1ccccc1` (configuration not stated), the TGI worked out at 31.1 µM.
As to `O=S(=O)(O)c1ccc(N=Nc2ccc(N=Nc3c(O)ccc4ccccc34)cc2)cc1`, the TGI was > 100 µM.

The subject of a further test is OVCAR-3 ovarian. The test can be described thus: NCI anticancer screen, dose series, 48 h.
Take `CCCCn1c(C)c2c(c1C)C(=O)N(CC(O)CN1CCc3ccccc3C1)C2=O` (configuration not stated): the TGI is > 100 µM.
Turning to `Cc1cc(C)nc(NS(=O)(=O)c2ccc(NNC(=O)c3cccc4c(=O)c5ccccc5[nH]c34)cc2)n1`, the TGI was > 100 µM.
With `S=c1[nH]n2c(COc3cccc(OCc4nnc5sc(=S)[nH]n45)c3)nnc2s1`, the TGI was > 100 µM.
Turning to `CN1CCN(CN2C(=O)C3C4C=CC(C3C2=O)C2C(=O)N(CN3CCN(C)CC3)C(=O)C42)CC1` (configuration not stated), the TGI was > 100 µM.
Same read-out and setting: under `CC(C)(C)c1cc(C(CO)OCCOCCO)cc(C(C)(C)C)c1O` (configuration not stated) stands > 100 µM; under `COc1cc(C2SCC(=O)N2c2ccc(Cl)c(Cl)c2)cc(OC)c1OC` (configuration not stated), > 100 µM; under `C[C@H]1C2Cc3cc(N)ccc3[C@@]1(C)CCN2CCc1ccccc1`, 92.6 µM.
For `CC(/C=N\NC(=S)N1CCCCC1)=N/NC(=S)N1CCCCC1`, the TGI turned out to be 5.12 µM.
As for `CC1C[C@]2(C)C(=O)Nc3ccccc3[C@@H]2Nc2ccccc21` (some centres not stated), the TGI stood at 35.9 µM.
Take `CCCCCC(/C=C/C1CCC(=O)C1CC#C[Si](C)(C)C)OCc1ccccc1` (configuration not stated): the TGI is 39.1 µM.
As to `O=S(=O)(O)c1ccc(N=Nc2ccc(N=Nc3c(O)ccc4ccccc34)cc2)cc1`, the TGI was > 100 µM.

The subject of another test is HOP-62 NSCLC. The test can be described thus: NCI anticancer screen, dose series, 48 h.
For `CCCCn1c(C)c2c(c1C)C(=O)N(CC(O)CN1CCc3ccccc3C1)C2=O` (configuration not stated), the TGI was > 100 µM.
Regarding `Cc1cc(C)nc(NS(=O)(=O)c2ccc(NNC(=O)c3cccc4c(=O)c5ccccc5[nH]c34)cc2)n1`, the TGI was > 100 µM.
With `S=c1[nH]n2c(COc3cccc(OCc4nnc5sc(=S)[nH]n45)c3)nnc2s1`, the TGI is > 100 µM.
Consider `CN1CCN(CN2C(=O)C3C4C=CC(C3C2=O)C2C(=O)N(CN3CCN(C)CC3)C(=O)C42)CC1` (configuration not stated), for which the TGI is > 87.3 µM.
For the compound `CC(C)(C)c1cc(C(CO)OCCOCCO)cc(C(C)(C)C)c1O` (configuration not stated), the TGI is > 100 µM.
As for `COc1cc(C2SCC(=O)N2c2ccc(Cl)c(Cl)c2)cc(OC)c1OC` (configuration not stated), the TGI is > 100 µM.
For the compound `C[C@H]1C2Cc3cc(N)ccc3[C@@]1(C)CCN2CCc1ccccc1`, the TGI was > 100 µM.
`CC(/C=N\NC(=S)N1CCCCC1)=N/NC(=S)N1CCCCC1` gave a TGI of 11 µM.
`CC1C[C@]2(C)C(=O)Nc3ccccc3[C@@H]2Nc2ccccc21` (some centres not stated): the TGI came out at 57.4 µM.
As for `CCCCCC(/C=C/C1CCC(=O)C1CC#C[Si](C)(C)C)OCc1ccccc1` (configuration not stated), the TGI was 41.5 µM.
With `O=S(=O)(O)c1ccc(N=Nc2ccc(N=Nc3c(O)ccc4ccccc34)cc2)cc1`, the TGI is > 100 µM.

For another test, the system named is MALME-3M melanoma. The test can be described thus: NCI anticancer screen, dose series, 48 h.
As for `CCCCn1c(C)c2c(c1C)C(=O)N(CC(O)CN1CCc3ccccc3C1)C2=O` (configuration not stated), the TGI was > 100 µM.
Take `Cc1cc(C)nc(NS(=O)(=O)c2ccc(NNC(=O)c3cccc4c(=O)c5ccccc5[nH]c34)cc2)n1`: the TGI was > 100 µM.
Still for that read-out and setting: under `S=c1[nH]n2c(COc3cccc(OCc4nnc5sc(=S)[nH]n45)c3)nnc2s1` stands > 100 µM; under `CN1CCN(CN2C(=O)C3C4C=CC(C3C2=O)C2C(=O)N(CN3CCN(C)CC3)C(=O)C42)CC1` (configuration not stated), > 92 µM.
As for `CC(C)(C)c1cc(C(CO)OCCOCCO)cc(C(C)(C)C)c1O` (configuration not stated), the TGI is > 100 µM.
On to `COc1cc(C2SCC(=O)N2c2ccc(Cl)c(Cl)c2)cc(OC)c1OC` (configuration not stated), for which the TGI is > 100 µM.
In turn, `C[C@H]1C2Cc3cc(N)ccc3[C@@]1(C)CCN2CCc1ccccc1` displayed a TGI of 54 µM.
Turning to `CC(/C=N\NC(=S)N1CCCCC1)=N/NC(=S)N1CCCCC1`, the TGI is 14.9 µM.
`CC1C[C@]2(C)C(=O)Nc3ccccc3[C@@H]2Nc2ccccc21` (some centres not stated): the TGI was 62 µM.
For `CCCCCC(/C=C/C1CCC(=O)C1CC#C[Si](C)(C)C)OCc1ccccc1` (configuration not stated), the TGI amounted to 37.8 µM.
On the same count and under the same terms, to `O=S(=O)(O)c1ccc(N=Nc2ccc(N=Nc3c(O)ccc4ccccc34)cc2)cc1` belongs > 100 µM.

In a further test the test system is PC-3 prostate. The test can be described thus: NCI anticancer screen, dose series, 48 h.
With `CCCCn1c(C)c2c(c1C)C(=O)N(CC(O)CN1CCc3ccccc3C1)C2=O` (configuration not stated), the TGI is > 100 µM.
In the case of `Cc1cc(C)nc(NS(=O)(=O)c2ccc(NNC(=O)c3cccc4c(=O)c5ccccc5[nH]c34)cc2)n1`, the TGI is > 100 µM.
Same read-out and setting: under `S=c1[nH]n2c(COc3cccc(OCc4nnc5sc(=S)[nH]n45)c3)nnc2s1` stands > 100 µM; under `CN1CCN(CN2C(=O)C3C4C=CC(C3C2=O)C2C(=O)N(CN3CCN(C)CC3)C(=O)C42)CC1` (configuration not stated), > 100 µM.
Same read-out and setting: to `CC(C)(C)c1cc(C(CO)OCCOCCO)cc(C(C)(C)C)c1O` (configuration not stated) belongs > 100 µM; to `COc1cc(C2SCC(=O)N2c2ccc(Cl)c(Cl)c2)cc(OC)c1OC` (configuration not stated), > 100 µM.
In turn, `C[C@H]1C2Cc3cc(N)ccc3[C@@]1(C)CCN2CCc1ccccc1` showed a TGI of 49.9 µM.
Take `CC(/C=N\NC(=S)N1CCCCC1)=N/NC(=S)N1CCCCC1`: the TGI stood at 11.9 µM.
Consider `CC1C[C@]2(C)C(=O)Nc3ccccc3[C@@H]2Nc2ccccc21` (some centres not stated), for which the TGI is 61.3 µM.
The same measure, in the same setting: under `CCCCCC(/C=C/C1CCC(=O)C1CC#C[Si](C)(C)C)OCc1ccccc1` (configuration not stated) stands > 64.1 µM; under `O=S(=O)(O)c1ccc(N=Nc2ccc(N=Nc3c(O)ccc4ccccc34)cc2)cc1`, > 100 µM.

The subject of a further test is SK-MEL-28 melanoma. The test can be described thus: NCI anticancer screen, dose series, 48 h.
`CCCCn1c(C)c2c(c1C)C(=O)N(CC(O)CN1CCc3ccccc3C1)C2=O` (configuration not stated): the TGI was > 100 µM.
In the case of `Cc1cc(C)nc(NS(=O)(=O)c2ccc(NNC(=O)c3cccc4c(=O)c5ccccc5[nH]c34)cc2)n1`, the TGI amounted to 82.8 µM.
Take `S=c1[nH]n2c(COc3cccc(OCc4nnc5sc(=S)[nH]n45)c3)nnc2s1`: the TGI was > 100 µM.
Regarding `CN1CCN(CN2C(=O)C3C4C=CC(C3C2=O)C2C(=O)N(CN3CCN(C)CC3)C(=O)C42)CC1` (configuration not stated), the TGI is > 58 µM.
Regarding `CC(C)(C)c1cc(C(CO)OCCOCCO)cc(C(C)(C)C)c1O` (configuration not stated), the TGI was > 100 µM.
